Converted amounts (≈) assume the structure as drawn.
Assays:
[1] = molecular target: T1, Carnitine O-palmitoyltransferase 1, muscle isoform (Homo sapiens, UniProt Q92523); test: SUPPLEMENTARY: Inhibition of Carnitine palmitoyltransferase 1, muscle isoform; set-up: species or system Muscle tissue
T1 sequence (Q92523 whole entry): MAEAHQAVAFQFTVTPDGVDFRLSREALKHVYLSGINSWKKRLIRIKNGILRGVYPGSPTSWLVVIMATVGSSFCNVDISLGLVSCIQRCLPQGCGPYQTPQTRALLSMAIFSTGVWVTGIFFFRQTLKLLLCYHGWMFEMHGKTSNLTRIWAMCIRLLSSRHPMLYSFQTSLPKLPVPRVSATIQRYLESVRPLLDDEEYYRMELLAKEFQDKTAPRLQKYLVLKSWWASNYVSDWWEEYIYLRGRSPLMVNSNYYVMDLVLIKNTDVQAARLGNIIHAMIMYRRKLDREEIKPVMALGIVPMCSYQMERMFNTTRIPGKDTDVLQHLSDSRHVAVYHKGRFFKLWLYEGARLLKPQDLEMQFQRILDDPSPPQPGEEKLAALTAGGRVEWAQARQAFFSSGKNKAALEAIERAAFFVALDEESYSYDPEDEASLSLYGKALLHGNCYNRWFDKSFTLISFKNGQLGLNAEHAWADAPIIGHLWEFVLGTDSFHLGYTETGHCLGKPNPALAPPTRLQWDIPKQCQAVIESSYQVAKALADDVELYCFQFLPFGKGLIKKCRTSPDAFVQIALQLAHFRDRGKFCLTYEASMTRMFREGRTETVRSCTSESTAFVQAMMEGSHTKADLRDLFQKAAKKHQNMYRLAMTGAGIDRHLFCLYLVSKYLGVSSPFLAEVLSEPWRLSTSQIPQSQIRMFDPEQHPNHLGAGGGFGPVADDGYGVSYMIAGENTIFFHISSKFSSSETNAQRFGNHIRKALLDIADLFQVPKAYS

[2] = molecular target: T2, Carnitine O-palmitoyltransferase 2, mitochondrial (Homo sapiens, UniProt P23786); test: (§1) SUPPLEMENTARY: Inhibition of Carnitine palmitoyltransferase 2
T2 sequence (P23786 whole entry): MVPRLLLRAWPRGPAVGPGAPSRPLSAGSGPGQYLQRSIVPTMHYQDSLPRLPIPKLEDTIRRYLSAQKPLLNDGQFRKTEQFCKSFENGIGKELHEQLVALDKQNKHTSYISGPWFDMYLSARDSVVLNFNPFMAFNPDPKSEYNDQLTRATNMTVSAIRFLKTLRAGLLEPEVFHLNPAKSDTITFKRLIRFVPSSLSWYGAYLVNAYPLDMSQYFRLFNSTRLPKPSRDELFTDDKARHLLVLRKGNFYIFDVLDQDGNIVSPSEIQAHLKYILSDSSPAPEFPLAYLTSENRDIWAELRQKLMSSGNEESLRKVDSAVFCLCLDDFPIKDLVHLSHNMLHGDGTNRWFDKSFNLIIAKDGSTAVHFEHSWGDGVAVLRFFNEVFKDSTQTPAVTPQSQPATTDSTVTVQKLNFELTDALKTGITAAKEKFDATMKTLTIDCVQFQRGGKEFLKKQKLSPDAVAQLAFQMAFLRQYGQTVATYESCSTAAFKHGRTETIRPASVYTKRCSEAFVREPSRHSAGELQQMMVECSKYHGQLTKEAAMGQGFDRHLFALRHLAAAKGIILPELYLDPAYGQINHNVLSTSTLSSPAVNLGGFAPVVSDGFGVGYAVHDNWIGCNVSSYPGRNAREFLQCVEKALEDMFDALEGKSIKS

[3] = molecular target: T3, Carnitine O-palmitoyltransferase 2, mitochondrial (Rattus norvegicus, UniProt P18886); test: as §1
T3 sequence (P18886 whole entry): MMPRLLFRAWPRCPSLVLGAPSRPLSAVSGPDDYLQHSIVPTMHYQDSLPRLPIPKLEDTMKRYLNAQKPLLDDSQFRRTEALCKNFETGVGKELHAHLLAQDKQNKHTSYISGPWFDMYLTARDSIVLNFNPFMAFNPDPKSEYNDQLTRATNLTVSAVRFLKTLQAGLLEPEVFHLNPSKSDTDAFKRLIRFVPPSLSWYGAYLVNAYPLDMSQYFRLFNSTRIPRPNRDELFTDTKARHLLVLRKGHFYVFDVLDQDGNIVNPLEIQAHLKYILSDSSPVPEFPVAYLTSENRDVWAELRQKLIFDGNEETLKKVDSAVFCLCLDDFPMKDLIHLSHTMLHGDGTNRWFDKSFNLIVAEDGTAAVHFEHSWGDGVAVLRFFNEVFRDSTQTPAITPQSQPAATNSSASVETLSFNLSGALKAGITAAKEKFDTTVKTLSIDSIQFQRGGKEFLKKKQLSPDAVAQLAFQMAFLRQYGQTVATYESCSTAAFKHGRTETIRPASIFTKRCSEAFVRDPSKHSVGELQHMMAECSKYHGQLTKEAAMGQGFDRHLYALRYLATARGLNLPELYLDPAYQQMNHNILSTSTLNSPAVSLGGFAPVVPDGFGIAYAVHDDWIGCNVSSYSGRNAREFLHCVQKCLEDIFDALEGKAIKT

[4] = molecular target: T4, Carnitine O-palmitoyltransferase 1, liver isoform (Homo sapiens, UniProt P50416); test: (§2) SUPPLEMENTARY: Inhibition of Carnitine palmitoyltransferase 1, liver isoform
T4 sequence (P50416 whole entry): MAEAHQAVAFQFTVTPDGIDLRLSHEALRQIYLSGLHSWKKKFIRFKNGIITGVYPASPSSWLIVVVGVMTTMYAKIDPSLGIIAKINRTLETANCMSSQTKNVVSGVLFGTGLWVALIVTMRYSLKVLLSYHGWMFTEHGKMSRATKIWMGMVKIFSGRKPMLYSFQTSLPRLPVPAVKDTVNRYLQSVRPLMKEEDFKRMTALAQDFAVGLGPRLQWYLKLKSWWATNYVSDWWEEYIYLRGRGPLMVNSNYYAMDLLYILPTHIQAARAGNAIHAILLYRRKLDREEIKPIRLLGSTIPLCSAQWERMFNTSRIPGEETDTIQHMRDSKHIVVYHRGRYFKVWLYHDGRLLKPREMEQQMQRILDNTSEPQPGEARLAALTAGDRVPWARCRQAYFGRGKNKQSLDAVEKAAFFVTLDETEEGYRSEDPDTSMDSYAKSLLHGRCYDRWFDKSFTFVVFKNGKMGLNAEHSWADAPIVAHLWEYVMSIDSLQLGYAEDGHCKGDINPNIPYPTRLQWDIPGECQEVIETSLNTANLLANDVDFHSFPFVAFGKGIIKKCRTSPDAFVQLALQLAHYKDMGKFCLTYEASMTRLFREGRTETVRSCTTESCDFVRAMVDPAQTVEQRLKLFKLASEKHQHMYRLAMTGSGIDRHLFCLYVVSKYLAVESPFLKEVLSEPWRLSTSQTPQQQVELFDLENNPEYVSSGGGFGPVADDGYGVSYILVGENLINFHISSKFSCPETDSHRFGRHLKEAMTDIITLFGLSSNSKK

[5] = molecular target: T5, Carnitine O-palmitoyltransferase 1, liver isoform (Rattus norvegicus, UniProt P32198); test: as §2
T5 sequence (P32198 whole entry): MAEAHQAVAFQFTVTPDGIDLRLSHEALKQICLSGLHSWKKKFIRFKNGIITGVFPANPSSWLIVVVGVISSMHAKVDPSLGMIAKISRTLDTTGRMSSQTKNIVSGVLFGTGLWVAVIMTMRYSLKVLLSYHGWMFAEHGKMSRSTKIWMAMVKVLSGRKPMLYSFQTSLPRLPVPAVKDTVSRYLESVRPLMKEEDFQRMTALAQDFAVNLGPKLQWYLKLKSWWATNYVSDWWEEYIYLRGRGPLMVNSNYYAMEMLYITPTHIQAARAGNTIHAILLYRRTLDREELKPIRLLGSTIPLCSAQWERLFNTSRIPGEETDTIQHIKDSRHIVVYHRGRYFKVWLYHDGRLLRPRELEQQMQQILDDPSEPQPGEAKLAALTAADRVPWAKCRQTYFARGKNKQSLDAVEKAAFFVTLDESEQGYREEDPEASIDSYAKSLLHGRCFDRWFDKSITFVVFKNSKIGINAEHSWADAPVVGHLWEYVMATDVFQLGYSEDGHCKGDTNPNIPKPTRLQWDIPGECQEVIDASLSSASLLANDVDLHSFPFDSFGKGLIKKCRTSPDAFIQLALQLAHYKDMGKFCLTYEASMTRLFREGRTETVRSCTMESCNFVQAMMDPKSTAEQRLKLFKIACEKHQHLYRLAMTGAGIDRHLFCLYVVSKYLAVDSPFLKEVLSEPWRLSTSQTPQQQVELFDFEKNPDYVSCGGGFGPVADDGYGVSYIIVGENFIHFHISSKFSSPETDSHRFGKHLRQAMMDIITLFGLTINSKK

[6] = SUPPLEMENTARY: Lyophilisation Solubility Assay (LYSA); format: physicochemical; conditions: read-out: Kinetic_solubility
[7] = SUPPLEMENTARY: Lipophilicity (log D) Determination by high-throughput shake-flask; format: physicochemical; conditions: octanol/water
[8] = SUPPLEMENTARY: PAMPA permeability assay; format: physicochemical; conditions: read-out: Permeability

| Structure (SMILES) | IC50 [1] [nM] | IC50 [2] [nM] | IC50 [3] [nM] | IC50 [4] [nM] | IC50 [5] [nM] | solubility kinetic [6] [µg/mL] | logD [7] | Papp [8] [×10⁻⁶ cm/s] |
| --- | --- | --- | --- | --- | --- | --- | --- | --- |
| N#Cc1cncc(-c2noc([C@H]3CCCCN3C(=O)COc3ccccc3)n2)c1 | > 100000 | > 100000 | > 100000 | 232 | 759 | 11 (≈ 28.2 µM) | 2.49 | 6.36 |
| O=C(COc1ccccc1)N1CCCC[C@@H]1c1noc(-c2ccc(C(F)(F)F)nc2)n1 | > 100000 | 6600 | 71000 | 197 | 200 | 8 (≈ 18.5 µM) | 3.38 | 2.21 |
| O=C(COc1ccccc1)N1CCCC[C@@H]1c1nnn(-c2ccc3[nH]ccc3c2)n1 | > 100000 | 47300 | > 100000 | 130 | 162 | < 1 | 3.88 | 2.27 |
| O=C(c1nc([C@H]2CCCCN2C(=O)COc2ccccc2)no1)N1CCC(c2ccncc2)C1 (stereo not given in full) | > 100000 | 19100 | 57300 | 216 | 1670 | 204 (≈ 442 µM) | 2.12 | 4.27 |
| O=C([C@H]1CCCCN1C(=O)COc1ccccc1)N1CCc2ccccc2C1 | > 100000 | 2060 | 3700 | 252 | 596 | 22 (≈ 58.1 µM) | 2.97 | 4.18 |
| O=C(COc1ccccc1)N1CCNC[C@@H]1c1nc(-c2ccc3[nH]cnc3c2)no1 | > 100000 | > 100000 | > 100000 | 132 | 9640 | 367 (≈ 907 µM) | 1.63 | 1.53 |
| Cc1cc(-c2nc([C@H]3CCCCN3C(=O)COc3ccccc3)no2)on1 | > 100000 | > 100000 | > 100000 | 116 | 144 | 41 (≈ 111 µM) | 2.6 | 9.63 |
| O=C(COc1ccccc1)N1CCCC[C@@H]1c1nc(-c2ccc(=O)[nH]c2)no1 | > 100000 | 97900 | > 100000 | 325 | 1190 | 161 (≈ 423 µM) | 1.83 | 4.75 |

Continued, values first:

| IC50 [1] [nM] | IC50 [2] [nM] | IC50 [3] [nM] | IC50 [4] [nM] | IC50 [5] [nM] | solubility kinetic [6] [µg/mL] | logD [7] | Papp [8] [×10⁻⁶ cm/s] | Structure (SMILES) |
| --- | --- | --- | --- | --- | --- | --- | --- | --- |
| > 100000 | 8060 | > 100000 | 111 | 71.4 | 26 (≈ 61.8 µM) | 3 | 3.5 | CC(=O)Nc1cccc(-n2nnc([C@H]3CCCCN3C(=O)COc3ccccc3)n2)c1 |
| > 100000 | > 100000 | > 100000 | 168 | 172 | < 1 | > 3 | 0.4 | CCN1C(=O)CC(C)(C)c2ccc(-c3nc([C@H]4CCCCN4C(=O)COc4ccccc4)no3)cc21 |
| 1160 | 28400 | 67500 | 51.5 | 62.5 | 399 (≈ 739 µM) | -0.12 | 2.43 | COc1ccc(Cl)cc1S(=O)(=O)N(C)c1cc(C(=O)Nc2nc(CC(=O)O)cs2)cc2c1OCO2 |
| 22700 | 6090 | 21700 | 91.2 | 247 | < 1 | 3.29 | 0.49 | CC1(C)NC(=O)N(c2ccc(Cl)c(-c3nc([C@H]4CCCCN4C(=O)COc4ccccc4)no3)c2)C1=O |
| 80800 | 18000 | > 100000 | 55.7 | 69.4 | 10 (≈ 23 µM) | 3.04 | 3.91 | O=C1COc2ccc(-c3noc([C@H]4CCCCN4C(=O)COc4ccccc4)n3)cc2N1 |
| 6780 | 453 | 1420 | 36.7 | 28.9 | 6 (≈ 12 µM) | 2.98 | 2.86 | COc1ccc(Cl)cc1S(=O)(=O)N1C[C@@H](C)c2ccc(C(=O)Nc3ccc(C(=O)O)cc3)cc21 |
| 685 | > 100000 | > 100000 | 68.8 | 37.2 | 5 (≈ 8.95 µM) | 2.27 | 3.12 | COc1ccc(Cl)cc1S(=O)(=O)N1CCOc2c(Cl)cc(C(=O)Nc3ncc(CC(=O)O)s3)cc21 |

From ChEMBL document CHEMBL3431459, “Roche carnitine palmitoyltransferase modulator screening data (supplementary data associated with the publication CHEMBL2216752)”
